Like-named read-outs stand apart in the source and are kept apart here. Marks after values point to notes of the source that are not given here.
Columns and labels:
[1] = test system: older patients with symptomatic heart failure; settings: for hospitalized overall for any reason: 48-week study observation period, p=0.018; for died of progressive heart failure: number of patients in each treatment group; for sudden cardiac death: p=0.043; for female patients died: subpopulation of female patients: of 118 losartan-treated, of 122 captopril-treated; for patients classified as New York Heart Association Class I or II at the end of the study: week 48, versus 66 percent (losartan) and 64 percent (captopril) at baseline
Excerpt: The study was approved by institutional review boards at each site; all patients gave written informed consent. An independent Data and Safety Monitoring Committee monitored the progress of the study. See Pitt B, Chang P, Timmermans P. Angiotensin II receptor antagonists in heart failure: Rationale and design of the Evaluation of Losartan in the Elderly (ELITE) Trial. Cardiovascular Drugs and Therapy 1995; 9: 693-700.
A detailed description of enrollment and exclusion criteria and study design has been presented previously. See Pitt B, Chang P, Timmermans P. Angiotensin II receptor antagonists in heart failure: Rationale and design of the Evaluation of Losartan in the Elderly (ELITE) Trial. Cardiovascular Drugs and Therapy 1995; 9: 693-700.
Titration generally occurred at 7-day intervals as tolerated. Treatment with all other concomitant cardiovascular therapies was permitted with the exception of open-label ACE inhibitors. Randomized patients were stratified by age (less than 70 and 70 years or greater).
Clinical assessments were performed weekly during titration and at three-month intervals thereafter. Laboratory evaluations were performed at weeks three, six, and twelve, and at three month intervals thereafter.
See Example 2) Hypotension-related symptoms, clinically important serum potassium increases (≥ 0.5 mEq/L), and cough, all originally secondary endpoints, were moved to tertiary endpoints. All deaths (including cause of death) and hospitalizations were adjudicated by an independent Clinical Endpoint Adjudication Committee, blinded to study treatment (see panel for mortality classification). Other prospectively-defined measures included myocardial infarction/hospitalization for unstable angina, worsening of heart failure, New York Heart Association functional classification, discontinuation from the study due to study drug intolerance, changes in neurohormonal profile.
• Sudden Cardiac Death: Death occurring without warning or within 1 hour of symptoms • Death due to Progressive Heart Failure: Death preceded by worsening signs and/or symptoms of heart failure, including cardiogenic shock • Fatal Myocardial Infarction: Death associated with autopsy-verified myocardial infarction or death within 28 days of a hospital-verified acute myocardial infarction provided no other cardiac or non-cardiac cause of death is found • Death due to Other Cardiac Causes: Death due to other cardiac causes, such as arrhythmia • Death due to Other Vascular Causes: Death due to vascular events such as stroke, pulmonary embolus, ruptured aneurysm, etc. • Death due to non-cardiovascular causes: Death not due to any cardiac or vascular events
The power and sample-size estimates for this study have been described. See Pitt B, Chang P, Timmermans P. Angiotensin II receptor antagonists in heart failure: Rationale and design of the Evaluation of Losartan in the Elderly (ELITE) Trial. Cardiovascular Drugs and Therapy 1995; 9: 693-700. Analysis of renal dysfunction (increases in serum creatinine) was based upon a modified intent-to-treat population; i.e., all patients were analyzed according to their randomization group, and an endpoint was declared only if initial and confirmatory elevations occurred while on double-blind therapy. Patients who discontinued from the study without meeting this endpoint were censored in the time-to-event analysis at the time of study discontinuation.
Analyses of deaths and heart failure hospitalizations (adjudicated endpoints) were based on an intent-to-treat population; all patients discontinued prematurely were followed through the specified 48-week period of the study. Patients not meeting the endpoint were censored in the time-to-event analysis either at the time of study completion (for patients who completed) or at the end of the 48-week follow-up period (for patients who discontinued).
For all time-to-event data, survival analyses were based upon the log-rank test.

[2] = test system: patients with symptomatic heart failure; assay: Exercise study Protocol A: 12-week placebo-controlled study of losartan, clinical events; format: in vivo; settings: for CHF Hospitalization (during DB) / Death: 12 weeks; for CHF Hospitalization (during DB): one patient hospitalized 2 days after discontinuation included; for Death: during double-blind therapy or related to SAE during double-blind
Excerpt: (§1) Protocols A & B were, multicenter, double-blind, randomized, parallel, placebo-controlled studies to investigate the effects of losartan on the exercise capacity and clinical status of patients over the age of 18 with symptomatic heart failure.
(§2) Approximately three hundred and fifty (350) patients with symptomatic heart failure (NYHA Functional Class II-IV, at least 50% Class III-IV) and left ventricular ejection fraction ≤40% were randomized to receive either losartan or placebo once daily for 12 weeks in each study. Following a minimum 15-day baseline placebo period, during which a minimum of 5 and maximum of 8 sets of baseline exercise tests (treadmill exercise test and 6-minute walk test) were performed, patients were randomized to treatment with losartan or placebo in a 2:1 ratio, respectively. According to the protocol's, patients must not have received an ACE-inhibitor for at least 6 weeks prior to the third baseline exercise test visit. Treatment with an ACE-inhibitor was not allowed at any time during these studies.
(§3) This report summarizes the results of the Meta-analysis performed (as proposed in the Data Analysis Plan) on the observed mortality and congestive heart failure (CHF) hospitalization across these two studies. The mortality and CHF hospitalization were not predefined endpoints in the protocols but it was intended that they be analyzed as a part of safety. Thus results from these analyses should not be interpreted as a test of significance as there were no predefined hypotheses corresponding to these safety parameters. […] Odds ratio's with 95% confidence intervals have been provided for these variables.
(§4) Peto-modified Mantel-Haenszel (Fleiss, J.L., Statistical Methods for Rates and Proportions, Wiley, NY, 1981.) method was used to carry out the Meta-analysis of death and CHF hospitalization rates in the two 12 week exercise studies. This method assumes homogeneity across the studies and provides a test for heterogeneity.
A total of three hundred and fifty one (351) patients were enrolled in the protocol A study; 237 patients were randomized to receive losartan and 114 patients were randomized to receive placebo. There were 4 (3.5%) deaths in the placebo group as compared to 4 (1.7%) in the losartan group during the double-blind therapy or as related to serious adverse events (AE) during double-blind. Additionally there were 10 (8.8%) CHF hospitalizations in the placebo group as compared to 10 (4.2%) in the losartan group during the double-blind therapy or as related to serious AE during double-blind. One patient included in the losartan group discontinued due to worsening HF and was hospitalized 2 days after discontinuation from double-blind period.

[3] = test system: patients with symptomatic heart failure; assay: Exercise study Protocol B: 12-week placebo-controlled study of losartan, clinical events; format: in vivo; settings: for CHF Hospitalization (during DB) / Death: 12 weeks; for Death: during double-blind therapy or related to Serious AE during double-blind
Excerpt: as §1, §2, §3, §4
A total of three hundred and eighty five (385) patients were enrolled in the protocol B exercise study; 254 patients were randomized to receive losartan and 131 patients were randomized to receive placebo. There were 9 (6.9%) deaths in the placebo group as compared to 3 (1.2%) in the losartan group during the double-blind therapy or as related to serious AE during double-blind. Additionally there were 7 (5.3%) CHF hospitalizations in the placebo group as compared to 5 (2.0%) in the losartan group during the double-blind therapy or as related to serious AE during double-blind.

[4] = test system: patients with symptomatic heart failure; assay: Meta-analysis of clinical events, Protocols A & B (Peto-modified Mantel-Haenszel method); format: in vivo; settings: for CHF Hospitalization, Odds Ratio / Death, Odds Ratio: Meta-analysis Protocols A & B, odds in placebo group relative to losartan group
Protocol: as §3, with “variables. Peto-modified Mantel-Haenszel (Fleiss, J.L., Statistical Methods for Rates and Proportions, Wiley, NY, 1981.) method was used to carry out the Meta-analysis of death and CHF hospitalization rates in the two 12 week exercise studies. This method assumes homogeneity across the studies and provides a test for heterogeneity. […] Since the results from protocols A and B are consistent, a safety Meta-analysis as proposed in the Data Analysis Plan has been performed. Homogeneity between the two studies with respect to odds ratio's for death and CHF hospitalization was found.” for “variables.”

[5] = of 352 losartan-treated, of 370 captopril-treated patients
[6] = losartan compared to captopril, controlled for age category
[7] = losartan compared to captopril, negative = increase in risk
[8] = number of patients of 237 randomized to losartan
[9] = odds in placebo group relative to losartan group
[10] = number of patients of 254 randomized to losartan

C[C@H](CS)C(=O)N1CCC[C@H]1C(=O)O [Captopril, captopril, reference compound]
hospitalized overall for any reason ([1]; number of patients): 119 patients
hospitalized overall for any reason [1]: 32.2%
incidence of heart failure hospitalizations ([1]; 48 weeks): 5.7%
incidence of death due to progressive heart failure ([1]; human, in vivo): less than one
Cause of death: Cardiovascular, Fatal Myocardial Infarction ([1]; intent-to-treat, 48 weeks): 4 ( 1.1) number (percent) of patients
Cause of death: Cardiovascular, Other Vascular ([1]; intent-to-treat, 48 weeks): 5 ( 1.4) number (percent) of patients
Cause of death: Cardiovascular, Progressive Heart Failure ([1]; intent-to-treat, 48 weeks): 1 ( 0.3) number (percent) of patients
Cause of death: Cardiovascular, Sudden Death ([1]; intent-to-treat, 48 weeks): 14 ( 3.8) number (percent) of patients
Cause of death: Non-cardiovascular ([1]; intent-to-treat, 48 weeks): 8 ( 2.2) number (percent) of patients
Death and/or Hospitalization for Heart Failure ([1]; intent-to-treat, 48 weeks): 49 (13.2) number (percent) of patients
Hospitalization for Heart Failure ([1]; intent-to-treat, 48 weeks): 21 ( 5.7) number (percent) of patients
total mortality ([1]; intent-to-treat, 48 weeks): 32 ( 8.7) number (percent) of patients
Fatal myocardial infarction ([1]; number of patients): four
died of progressive heart failure [1]: one
total mortality ([1]; number of patients, p=0.035): 32 patients
sudden cardiac death ([1]; number of patients): 14 patients
death and/or heart failure hospitalizations [1, 5]: 49 patients
death and/or heart failure hospitalizations ([1]; percent of patients, p=0.075): 13.2%
female patients died [1]: 8 patients
patients classified as New York Heart Association Class I or II at the end of the study [1]: 82%

CCCCc1nc(Cl)c(CO)n1Cc1ccc(-c2ccccc2-c2nn[nH]n2)cc1 [Losartan]
hospitalized overall for any reason ([1]; number of patients): 86 patients
hospitalized overall for any reason [1]: 24.4%
incidence of heart failure hospitalizations ([1]; 48 weeks): 5.7%
Single rises of serum creatinine ≥0.3 mg/dL, risk reduction ([1]; human, in vivo): 14%
incidence of death due to progressive heart failure ([1]; human, in vivo): less than one
patients discontinued for renal function reason ([1]; human, in vivo): less than 2%
persistent increases in serum creatinine ≥0.3 mg/dL from baseline ([1]; human, in vivo): 10.5%
tolerability ([1]; human, in vivo): better tolerated compared to captopril
Cause of death: Cardiovascular, Fatal Myocardial Infarction ([1]; intent-to-treat, 48 weeks): 1 (0.3) number (percent) of patients
Cause of death: Cardiovascular, Other Vascular ([1]; intent-to-treat, 48 weeks): 5 (1.4) number (percent) of patients
Cause of death: Cardiovascular, Progressive Heart Failure ([1]; intent-to-treat, 48 weeks): 1 (0.3) number (percent) of patients
Cause of death: Cardiovascular, Sudden Death ([1]; intent-to-treat, 48 weeks): 5 (1.4) number (percent) of patients
Cause of death: Non-cardiovascular ([1]; intent-to-treat, 48 weeks): 5 (1.4) number (percent) of patients
Death and/or Hospitalization for Heart Failure ([1]; intent-to-treat, 48 weeks): 33 (9.4) number (percent) of patients
Hospitalization for Heart Failure ([1]; intent-to-treat, 48 weeks): 20 (5.7) number (percent) of patients
total mortality ([1]; intent-to-treat, 48 weeks): 17 (4.8) number (percent) of patients
Death and/or Hospitalization for Heart Failure, RISK REDUCTION (95% CI) [1, 6]: 0.32 (- 0.04, 0.55)
Fatal Myocardial Infarction, RISK REDUCTION (95% CI) [1, 6]: 0.76 (- 0.83, 0.97)
Hospitalization for Heart Failure, RISK REDUCTION (95% CI) [1, 6]: 0.04 (- 0.74, 0.47)
Non-cardiovascular death, RISK REDUCTION (95% CI) [1, 6]: 0.35 (- 0.94, 0.78)
Sudden Death, RISK REDUCTION (95% CI) [1, 6]: 0.64 ( 0.03, 0.86)
Total Mortality, RISK REDUCTION (95% CI) [1, 6]: 0.46 ( 0.05, 0.69)
Death from Other Vascular causes, RISK REDUCTION (95% CI) [1, 7]: -0.03 (- 2.63, 0.71)
Death from Progressive Heart Failure, RISK REDUCTION (95% CI) [1, 7]: -0.11 (-20.23, 0.94)
decrease in total mortality (lower risk of death) ([1]; losartan versus captopril, 48 weeks, P=0.035): 46%
Fatal myocardial infarction ([1]; number of patients): one
died of progressive heart failure [1]: one
total mortality ([1]; number of patients, p=0.035): 17 patients
sudden cardiac death ([1]; number of patients): five
death and/or heart failure hospitalizations [1, 5]: 33 patients
death and/or heart failure hospitalizations ([1]; percent of patients, p=0.075): 9.4%
female patients died [1]: 9 patients
patients classified as New York Heart Association Class I or II at the end of the study [1]: 80%
CHF Hospitalization (during DB) [2]: 4.2%^a
CHF Hospitalization (during DB) ([2]; listed as losartan): 4.2%
Death [2]: 1.7%
Death ([2]; listed as losartan): 1.7%
CHF hospitalizations [2, 8]: 10
deaths [2, 8]: 4
CHF Hospitalization, Odds Ratio [2, 9]: 2.2
Death, Odds Ratio [2, 9]: 2.1
CHF Hospitalization (during DB) [3]: 2.0%
CHF Hospitalization (during DB) ([3]; listed as losartan): 2.0%
Death [3]: 1.2%
Death ([3]; listed as losartan): 1.2%
CHF hospitalizations [3, 10]: 5
deaths [3, 10]: 3
CHF Hospitalization, Odds Ratio [3, 9]: 2.7
Death, Odds Ratio [3, 9]: 5.6*
Death, Odds Ratio ([3]; odds in placebo group relative to losartan group, listed as losartan): 5.6
CHF Hospitalization, Odds Ratio [4]: 2.4*
Death, Odds Ratio [4]: 3.5*
CHF Hospitalization, Odds Ratio ([4]; listed as losartan): 2.4
Death, Odds Ratio ([4]; listed as losartan): 3.5
CHF Hospitalization (during double-blind) ([4]; Protocols A & B combined): 3.1% ^a
Death ([4]; Protocols A & B combined, during double-blind therapy or related to Serious AE): 1.4%
